From EP3463364B1, “PYRAZINE DERIVATIVES FOR USE IN THE TREATMENT OF DISEASES ASSOCIATED WITH CELL CYCLE DYSREGULATION” (University of Patras, priority 2016, dated 2017)

Molecular target: T1, exogenous Geminin-Cdtl protein complex (Homo sapiens, UniProt O75496+Q9H211)
T1 construct: expressed in transfected cells; host or cells: MCF7
T1 sequence (Q9H211 1-546): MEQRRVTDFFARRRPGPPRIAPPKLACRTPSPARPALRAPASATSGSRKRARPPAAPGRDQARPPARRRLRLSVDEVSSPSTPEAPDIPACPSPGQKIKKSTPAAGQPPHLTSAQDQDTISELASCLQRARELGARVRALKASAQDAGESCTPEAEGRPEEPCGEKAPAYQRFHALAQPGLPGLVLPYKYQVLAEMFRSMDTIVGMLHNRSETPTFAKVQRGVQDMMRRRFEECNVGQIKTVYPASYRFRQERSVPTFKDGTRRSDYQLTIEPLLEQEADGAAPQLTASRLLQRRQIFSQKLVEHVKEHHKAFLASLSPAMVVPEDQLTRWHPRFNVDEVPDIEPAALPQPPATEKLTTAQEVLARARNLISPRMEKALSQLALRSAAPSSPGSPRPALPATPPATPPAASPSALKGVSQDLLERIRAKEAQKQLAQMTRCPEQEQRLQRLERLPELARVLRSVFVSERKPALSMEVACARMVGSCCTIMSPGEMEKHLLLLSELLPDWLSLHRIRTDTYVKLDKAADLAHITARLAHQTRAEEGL
T1 sequence (O75496 1-209): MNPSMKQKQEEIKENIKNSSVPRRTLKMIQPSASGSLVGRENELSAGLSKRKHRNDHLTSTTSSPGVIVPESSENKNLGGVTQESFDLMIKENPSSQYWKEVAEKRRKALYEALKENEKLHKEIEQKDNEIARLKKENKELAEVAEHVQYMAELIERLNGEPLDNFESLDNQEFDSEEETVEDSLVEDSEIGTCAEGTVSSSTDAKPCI
Assay: FRET acceptor photobleaching cellular assay in co-transfected MCF7 cells (Cdt1-GFP & Geminin-dhcRed)
Format: cell-based
Settings: 100µM, 24-hour incubation, MCF7 cells co-transfected with Cdt1-GFP & Geminin-dhcRed (Fig. 3)
Method: A cellular assay was developed and applied using epithelial cells of breast adenocarcinoma (MCF7), for the purpose of the ex vivo study of the ability of the synthetic chemical compound AF-615/30368009 to inhibit formation and/or disrupt the exogenous Geminin-Cdtl protein complex.
The appropriate number of cells was seeded onto glass coverslips and cells were allowed in culture in order to adhere. Then they were transiently co-transfected with plasmid expression vectors pcDNA3.1-EGFP and pdiHcRed-N1 containing the DNA regions encoding for the proteins Cdtl-GFP and Geminin-dhcRed respectively. Three to five hours after co-transfection, the medium was removed and replaced with fresh medium which contained the synthetic chemical compound AF-615/30368009 at a concentration of 100µM. […]
MCF7 cancer cells fixed as described above were used to perform FRET acceptor photobleaching. In order to quantify the efficiency (E) of the FRET phenomenon, the following equation was used: (4) E = (Dpost - Dpre)/Dpost, wherein Dpre and Dpost is the mean value of fluorescence intensity of the donor before and after photobleaching of the acceptor, respectively.
For the purposes of this invention the inhibitory effect of the synthetic compound AF-615/30368009 on the exogenous Geminin-Cdtl protein complex was calculated as the percent (%) change in efficiency (E) of the FRET phenomenon. […]

O=C(NNC(=S)N1CCOCC1)c1cnccn1 [AF-615/30368009, N'-(morpholine-4-carbothioyl)pyrazine-2-carbohydrazide] was tested. Which “efficiency (E) of the FRET phenomenon” value did it give?
The value was “decrease in (E), although not statistically significant”.
